Assay results taken from patent US20090247466A1, “NEUROPROTECTIVE INTEGRIN-BINDING PEPTIDE AND ANGIOPOIETIN-1 TREATMENTS” (University of Louisville Research Foundation, priority 2008, published 2009).
Ends that are not written are not given here.

Columns and labels:
[1] = Blood cell counts after 7 days of treatment; type: in vivo, mice; set-up: key to Leukocytes eosinophils / Leukocytes basophils / Erythrocytes / Leukocytes total / Leukocytes neutrophils / Leukocytes lymphocytes / Leukocytes monocytes: N = within the normal range; details: daily C16 for 7 days after T9 contusion; individual mice A, B
Method: (§1) To determine potential effects of C16 on the number of peripheral leukocytes, 1 ml blood was drawn from the heart just before perfusion-fixation in mice that had been treated with vehicle (n=3) or C16 (n=2) for 7 days treated. The blood was collected in EDTA-coated tubes and blood counts were performed by Drew Scientific Inc. (Oxford, Conn.).
as §1, with “vehicle” for “vehicle (n=3)”, “C16” for “C16 (n=2)”, “days.” for “days treated.”

peripheral leukocytes = assay: Blood cell counts after 7 days of treatment; type: in vivo, mice; set-up: key to Leukocytes eosinophils / Leukocytes basophils / Erythrocytes / Leukocytes total / Leukocytes neutrophils / Leukocytes lymphocytes / Leukocytes monocytes: N = within the normal range
Method: as §1
as §1, with “vehicle” for “vehicle (n=3)”, “C16” for “C16 (n=2)”, “days.” for “days treated.”

[2] = biological target: human αvβ3 integrin (human) (UniProt P06756); assay: cell-based or functional assay
[3] = test system: C57BL/6 mice with spinal cord contusion at T9; assay: Overground locomotor function, Basso Mouse Scale (BMS), after spinal cord contusion; type: in vivo
Method: To determine whether C16 had lasting neuroprotective effects, mice received daily injections with vehicle (n=8) or 100 μg/day C16 (n=9) for 14 days. The treatment was started 4 hours after the spinal cord injury consistent with the time it takes to diagnose most injured humans in the developed world. These mice were evaluated every week by BMS and were euthanized after 6 weeks.
Functional recovery from the spinal cord contusion was determined weekly by open-field overground locomotor performance using the Basso Mouse Scale (BMS; Basso et al., 2006, J Neurotrauma 23:635-659), with scores ranging from 0 (complete paralysis) to 9 (normal mobility). Left and right sides are scored separately and averaged for each mouse. Weight bearing is seen at a score of 5 but not at 4. Locomotor function was measured by placing the mouse for 4 min in the center of a circular enclosure (90 cm in diameter, 7 cm wall height) made of molded plastic with a smooth, non-slip floor. Before each evaluation, the mice were examined carefully for perineal infections, wounds in the limbs, or tail and foot autophagia, as they could influence stepping. Such mice were excluded from the BMS test. The mice were tested for baseline values before surgery. The mice in the 7-day experiments were tested on the day of euthanasia and the mice in the 6 week chronic group were tested every week starting on day 8 or 9 after the contusion.
Adult C57B1/6 mice received a contusion injury at the thoracic spine level 9. Starting 4 hours after the injury, the mice received daily intravenous injections of control vehicle, Ang-1 or Ang-1 plus C16 (all at 100 μg/day) for 7 days.
Functional recovery after SCI was determined weekly by open-field overground locomotor performance using the BMS (Basso et al., J Neurotrauma, 23(5), 635-659 (2006)). Before each evaluation, the mice were examined carefully for perineal infections, wounds in the limbs, or tail and foot autophagia, as they could influence stepping. Such mice were excluded from the BMS test. The mice were acclimatized to the testing area for at least 25 minutes, including individually handling for at least 5 minutes, for 3 days and then tested for baseline values before surgery. The mice in the 7-day experiments were tested on the day of euthanasia and the mice in the 6 week chronic group were tested every week starting on day 8 or 9 after the contusion.

[4] = test system: C57BL/6 mice with spinal cord contusion at T9; assay: Blood vessel permeability: luciferase extravasated into the spinal cord at the injury site; type: in vivo
Method: Increased permeability contributes to tissue loss following SCI and was measured here by the amount of luciferase that extravasated into the spinal cord at the injury site after i.v. injection 20 minutes before analysis.

[5] = test system: C57BL/6 mice with spinal cord contusion at T9; assay: Inflammation: CD45 and CD68 immunostained area after spinal cord contusion; type: in vivo
Method: Adjacent sections at each mm level were processed for double- or triple immunofluorescent staining to detect CD45 (leukocytes), CD68 (activated microglia/macrophages), PECAM1 (endothelial cells), αv, β3 or α5β1 integrin, or in some cases laminin (to define the so-called heterodomain or area of tissue loss). Slides were warmed for 20 minutes on a slide warmer, a ring of wax applied around the sections with a PAP pen (Invitrogen™, Carlsbad, Calif.) and the slides rinsed in 0.1 M Tris-buffered saline (TBS) for 10 min. […] To measure the volume of tissue loss as determined by laminin staining in the horizontal sections, the sections were processed using an ABC-DAB staining protocol.
Sections were examined using a Leica DMIRE2 brightfield and fluorescence microscope and images digitized with an attached Spot RTKE camera (Diagnostics Inc., Sterling Height, Mich.). EC, CD45, CD68 and PECAM staining through the entire plane of the transverse sections was digitized using a 5× objective and the area occupied by the staining calculated for the three sections per rostro-caudal level by using the threshold feature of Scion Image software (Scion Corporation, Frederick, Md.). […] The area of LEA was determined with Scion Image. To provide a measure of the number of blood vessels, the number of LEA-positive vessels intersecting 100 μm spaced horizontal (5) and vertical (6) lines were counted in each image. […] The software calculated the volume based on the section interval and the area per section and this was expressed as a percentage of the total 10 mm segment. […]

[6] = test system: C57BL/6 mice with spinal cord contusion at T9; assay: Perfused (LEA lectin-labeled) blood vessels in the injury penumbra after spinal cord contusion; type: in vivo; details: single i.v. injection immediately after injury; 24 hours
Method: Normal (n=3) and 7 day sham operated mice (n=5) also received intravenous LEA injections.
To pre-label perfused blood vessels, 100 μg in 100 μl of FITC-conjugated LEA (Lectin from Lycopersicon esculentum; Sigma, St. Louis, Mo.) was injected into the other jugular vein 30 minutes before euthanasia.

[7] = test system: C57BL/6 mice with spinal cord contusion at T9; assay: White matter sparing at the injury epicenter (eriochrome cyanine myelin staining) after spinal cord contusion; type: in vivo
Method: These mice were tested for overground locomotion using the Basso Mouse Scale (BMS) before the contusion and on the day of euthanasia.
To label endothelial cells of perfused blood vessels, 4 of the vehicle and 4 of the C16 mice received an intravenous injection of the lectin LEA 20 minutes before euthanasia.
To determine whether […] C16 would be neuroprotective, vehicle (n=8) or 100 μg/day C16 (n=9) was injected over 7 days. These mice were tested using the BMS before the contusion and on the last day.
To determine whether C16 had lasting neuroprotective effects, mice received daily injections with vehicle (n=8) or 100 μg/day C16 (n=9) for 14 days. […] These mice were evaluated every week by BMS and were euthanized after 6 weeks. […]
To detect myelin in white matter tracts, one of every five of the transverse sections at each rostro-caudal 1 mm level were stained with a modified eriochrome cyanine (EC) staining protocol (Rabchevsky et al., 2001, J Neurotrauma 18:513-522). […] The injury epicenter was determined for each mouse by the rostro-caudal level that contained the least amount of spared myelin per transverse section. […]
Sections were examined using a Leica DMIRE2 brightfield and fluorescence microscope and images digitized with an attached Spot RTKE camera (Diagnostics Inc., Sterling Height, Mich.). […] The area of LEA was determined with Scion Image. […]

[8] = test system: monocytic THP-1 cells across human aortic endothelial cells; assay: Transendothelial migration assay; type: cell-based; details: SP3 600 μM; absence or presence of TNFα
Method: Human aortic endothelial cells (Lonza, Wakersville, Md.) were plated on permeable filters in Transwell® culture plates (Costar, Cambridge, Mass.) at 4×10^4 cells per well. They were grown for 72-96 hours to reach confluency at 37° C. in Dulbecco's modified Eagle's medium Ham's F-12 (DMEM F-12; BioWhittaker, Walkersville, Md.) plus EGM-2 growth factor supplements (EGM-2 SingleQuots™ from Lonza Walkersville Inc, containing hydrocortisone, hEGF, FBS, VEGF, hFGF-B, R3-IGF-1, ascorbic acid, heparin and gentamicin/amphotericin-B) and 10-20% fetal calf serum. Afterwards, the inner chamber of the Transwell® system was loaded with 2×10^5 monocytic THP-1 cells (American Type Culture Collection, Manassas, Va.) and preincubated in medium with or without 15 ng/ml of TNF-α (PeproTech, Rocky Hill, N.J.) for 5 hr at 37° C. C16 peptide was added into the medium of the inner chamber at 25, 50, 100, 200, 400, 600 μM, and SP3 was added at 600 μM. […] The monocytic THP-1 cells were allowed to transmigrate for 6 h at 37° C. and the number of THP-1 cells that crossed endothelial cell layer was counted. […]
Human aortic ECs (BioWhittaker, Walkersville, Md.) were plated on permeable filters in Transwell culture plates (Costar, Cambridge, Mass.) at 4×10^4 cells per well. […] THP-1 cells were allowed to transmigrate for 6 h at 37° C. and the number of THP-1 cells that crossed EC layer was counted. […]

[9] = daily C16 for 7 days after T9 contusion, individual mice A, B

Chain of human αvβ3 integrin (human) (P06756 31-1048, chain 1 of 2): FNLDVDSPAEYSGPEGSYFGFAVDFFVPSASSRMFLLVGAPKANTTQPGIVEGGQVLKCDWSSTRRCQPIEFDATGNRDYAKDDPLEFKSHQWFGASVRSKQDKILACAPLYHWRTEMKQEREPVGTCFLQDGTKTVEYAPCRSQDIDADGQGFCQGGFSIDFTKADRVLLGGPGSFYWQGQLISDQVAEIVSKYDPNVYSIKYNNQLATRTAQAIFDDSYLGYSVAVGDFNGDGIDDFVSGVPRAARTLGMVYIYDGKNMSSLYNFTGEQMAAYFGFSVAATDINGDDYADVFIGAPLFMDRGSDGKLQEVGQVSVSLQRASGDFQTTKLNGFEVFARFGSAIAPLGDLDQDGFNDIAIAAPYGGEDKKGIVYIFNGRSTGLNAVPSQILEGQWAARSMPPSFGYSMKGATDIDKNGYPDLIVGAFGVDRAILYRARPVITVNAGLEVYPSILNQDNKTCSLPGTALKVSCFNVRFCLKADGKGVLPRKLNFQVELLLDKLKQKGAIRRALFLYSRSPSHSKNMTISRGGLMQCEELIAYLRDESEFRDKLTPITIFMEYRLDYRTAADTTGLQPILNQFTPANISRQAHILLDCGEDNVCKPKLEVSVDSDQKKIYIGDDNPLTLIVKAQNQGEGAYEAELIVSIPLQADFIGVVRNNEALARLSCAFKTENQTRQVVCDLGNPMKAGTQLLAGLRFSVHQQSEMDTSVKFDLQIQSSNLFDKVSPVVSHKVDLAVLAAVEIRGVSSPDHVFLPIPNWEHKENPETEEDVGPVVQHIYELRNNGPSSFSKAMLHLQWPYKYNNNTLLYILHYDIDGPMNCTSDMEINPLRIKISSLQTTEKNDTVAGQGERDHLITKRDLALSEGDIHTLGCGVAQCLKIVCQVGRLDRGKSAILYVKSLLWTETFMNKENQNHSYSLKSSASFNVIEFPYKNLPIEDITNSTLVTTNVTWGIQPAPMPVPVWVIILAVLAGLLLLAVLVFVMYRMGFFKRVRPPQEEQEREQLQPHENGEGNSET
Chain of human αvβ3 integrin (human) (P05106 27-788, chain 2 of 2, further chain): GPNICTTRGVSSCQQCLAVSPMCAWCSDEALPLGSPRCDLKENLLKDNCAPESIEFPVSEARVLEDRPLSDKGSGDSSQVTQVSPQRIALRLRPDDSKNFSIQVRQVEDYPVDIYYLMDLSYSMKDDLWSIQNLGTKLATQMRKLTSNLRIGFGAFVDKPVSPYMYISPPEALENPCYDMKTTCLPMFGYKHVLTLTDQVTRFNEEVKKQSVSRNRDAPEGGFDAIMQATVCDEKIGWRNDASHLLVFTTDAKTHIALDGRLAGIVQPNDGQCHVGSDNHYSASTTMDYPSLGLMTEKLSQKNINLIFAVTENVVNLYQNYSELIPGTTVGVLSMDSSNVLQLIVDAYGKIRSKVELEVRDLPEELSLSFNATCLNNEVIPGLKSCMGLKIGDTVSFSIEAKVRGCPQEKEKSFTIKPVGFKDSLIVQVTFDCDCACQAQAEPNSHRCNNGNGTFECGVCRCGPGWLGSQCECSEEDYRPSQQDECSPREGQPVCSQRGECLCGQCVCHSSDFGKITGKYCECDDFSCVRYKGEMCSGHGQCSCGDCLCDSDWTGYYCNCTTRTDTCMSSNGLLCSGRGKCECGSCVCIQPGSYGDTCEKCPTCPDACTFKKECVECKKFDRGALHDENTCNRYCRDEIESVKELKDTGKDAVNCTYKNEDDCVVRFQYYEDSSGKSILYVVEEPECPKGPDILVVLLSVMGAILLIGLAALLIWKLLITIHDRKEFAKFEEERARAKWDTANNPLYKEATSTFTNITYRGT

KAFDITYVRLKF [C16, KAFDITYVRLKF (SEQ ID NO:2)]
Erythrocytes [1]: N
Leukocytes basophils (peripheral leukocytes; [9]): N
Leukocytes eosinophils (peripheral leukocytes; [9]): N
Leukocytes lymphocytes (peripheral leukocytes; [9]): N
Leukocytes monocytes (peripheral leukocytes; [9]): N
Leukocytes neutrophils (peripheral leukocytes; [9]): N
Leukocytes total (peripheral leukocytes; [9]): N
Thrombocytes (peripheral leukocytes; [9]): low
white cell counts (peripheral leukocytes; treated for 7 days): within normal range

azide-free blocking antibody against human αvβ3 (Cat# MAB1976Z, Chemicon; also known as LM609)
monocyte (THP-1) transmigration across an endothelial cell layer, blocking antibody, with TNFα, without C16 [2]: 64%
monocyte transmigration across an EC layer, reduction by blocking antibody [2]: 36%

Angiopoietin-1 tetra-fibrinogen-like domain [Ang-1]
BMS score (9 point scale) ([3]; 100 μg/day i.v. for 7 days starting 4 hours after injury, behavioral analyses over 6 weeks): 5.5
mice with a BMS score of 7 or above ([3]; i.v. for 7 days, at 43 days): 4/14
mice with a BMS score of 7 and above ([3]; last two weeks of testing (5 and 6 weeks after injury)): 28%
luciferase values versus vehicle ([4]; 24 hours following SCI): not different
luciferase values, of vehicle ([4]; 72 hours following SCI): 55±13%
smaller area of CD68 staining than vehicle treated mice ([5]; 24 hours, 3 mm rostral to 3 mm caudal from the epicenter): ~25%
inflammation (CD45, CD68 area) compared with vehicle ([5]; all post-injury times, 3 mm rostral to 3 mm caudal from the epicenter): reduced inflammation
number of LEA-positive blood vessels in the penumbra, of sham [6]: 40%
cross-sectional area of white matter at the epicenter compared with vehicle ([7]; 7 and 42 day post-injury times): greater

RFSVAVSSHYPFWSR (SEQ ID NO:3) [SP3, reference compound]
BMS score ([3]; 100 μg/day i.v. daily for 7 days, 7 days following injury): 0.7±0.3
effect on the inflammatory response ([5]; control peptide 100 μg/day, at 7 days): no significant effect
effect on monocyte transmigration [8]: no significant effect
white matter cross-sectional area at the injury epicenter, percent of sham-operated mice ([7]; 100 μg/day i.v. daily for 7 days, 7 days after contusion): 30±5%
